Measurements from patent US10828315B2 (Madrigal Pharmaceuticals, Inc., priority 2013, dated 2020).
“And” between values parts separate entries of the source, which are not always exact repeats. Equal entries are not always repeated.

Columns and labels:
[1] = Mouse plasma stability protocol, up to 1 h (Examples 16-18)
HER2 = HER2 degradation assay with BT-474 cell line (Example 12, FACS); format: cell-based, human
[2] = % Remaining of parent after 1 h incubation in mouse plasma at 37° C. (10 μM)

CCNC(=O)c1nnc(-c2cc(C(C)C)c(O)cc2O)n1-c1ccc(CN2CCC(C(=O)N3CCC(N(C)C(=O)Oc4ccc5nc6c(c(CC)c5c4)Cn4c-6cc5c(c4=O)COC(=O)C5(O)CC)CC3)CC2)cc1 (stereo not shown) [SDC-TRAP-0172, 4,11-diethyl-4-hydroxy-3,14-dioxo-3,4,12,14-tetrahydro-1H-pyrano[3′,4′:6,7]indolizino[1,2-b]quinolin-9-yl (1-(1-(4-(3-(2,4-dihydroxy-5-isopropylphenyl)-5-(ethylcarbamoyl)-4H-1,2,4-triazol-4-yl)benzyl)piperidine-4-carbonyl)piperidin-4-yl)(methyl) carbamate]
% Remaining (1 h) [1, 2]: 74.7% | % Remaining (1 h) ([1]; mouse plasma, 37° C., 10 μM): 74.7% | % Remaining (1 h, 37° C.) ([1]; mouse plasma, 37° C.): 74.7% | IC50 (HER2): < 78 nM and 56 nM

CCNC(=O)c1nnc(-c2cc(C(C)C)c(O)cc2O)n1-c1ccc(Oc2ccc(N(C)C(=O)Oc3ccc4nc5c(c(CC)c4c3)Cn3c-5cc4c(c3=O)COC(=O)[C@]4(O)CC)cc2)cc1 [SDC-TRAP-0145, (S)-4,11-diethyl-4-hydroxy-3,14-dioxo-3,4,12,14-tetrahydro-1H-pyrano[3′,4′:6,7]indolizino[1,2-b]quinolin-9-yl (4-(4-(3-(2,4-dihydroxy-5-isopropylphenyl)-5-(ethylcarbamoyl)-4H-1,2,4-triazol-4-yl)phenoxy)phenyl)(methyl)carbamate]
% Remaining (1 h) [1, 2]: 14.1% | % Remaining (1 h, 37° C.) ([1]; mouse plasma, 37° C.): 14.1% | IC50 (HER2): 183 nM

CCNC(=O)c1nnc(-c2cc(C(C)C)c(O)cc2O)n1-c1ccc(OC2CCN(C(=O)CN(C)C(=O)Oc3ccc4nc5c(c(CC)c4c3)Cn3c-5cc4c(c3=O)COC(=O)[C@]4(O)CC)CC2)cc1 [SDC-TRAP-0206, (S)-4,11-diethyl-4-hydroxy-3,14-dioxo-3,4,12,14-tetrahydro-1H-pyrano[3′,4′:6,7]indolizino[1,2-b]quinolin-9-yl (2-(4-(4-(3-(2,4-dihydroxy-5-isopropylphenyl)-5-(ethylcarbamoyl)-4H-1,2,4-triazol-4-yl)phenoxy)piperidin-1-yl)-2-oxoethyl)(methyl)carbamate]
% Remaining (1 h) [1, 2]: 68.6% | % Remaining (1 h, 37° C.) ([1]; mouse plasma, 37° C.): 68.6% | IC50 (HER2): 321 nM

CCNC(=O)c1nnc(-c2cc(C(C)C)c(O)cc2O)n1-c1ccc(Oc2ccc(C(=O)N3CCC(N(C)C(=O)Oc4ccc5nc6c(c(CC)c5c4)Cn4c-6cc5c(c4=O)COC(=O)C5(O)CC)CC3)cc2)cc1 (stereo not shown) [SDC-TRAP-0180, 4,11-Diethyl-4-hydroxy-3,14-dioxo-3,4,12,14-tetrahydro-1H-pyrano[3′,4′:6,7]indolizino[1,2-b]quinolin-9-yl (1-(4-(4-(3-(2,4-dihydroxy-5-isopropylphenyl)-5-(ethylcarbamoyl)-4H-1,2,4-triazol-4-yl)phenoxy)benzoyl)piperidin-4-yl)(methyl)carbamate]
% Remaining (1 h) [1, 2]: 72.4% | % Remaining (1 h) ([1]; mouse plasma, 37° C., 10 μM): 72.4% | % Remaining (1 h, 37° C.) ([1]; mouse plasma, 37° C.): 72.4% | IC50 (HER2): 325 nM

CCc1c2c(nc3ccc(OC(=O)N4CCC(Cn5ccc6cc(-n7c(O)nnc7-c7cc(C(C)C)c(O)cc7O)ccc65)CC4)cc13)-c1cc3c(c(=O)n1C2)COC(=O)C3(O)CC (stereo not shown) [SDC-TRAP-0186, 4,11-diethyl-4-hydroxy-3,14-dioxo-3,4,12,14-tetrahydro-1H-pyrano[3′,4′:6,7]indolizino[1,2-b]quinolin-9-yl 4-((5-(3-(2,4-dihydroxy-5-isopropylphenyl)-5-hydroxy-4H-1,2,4-triazol-4-yl)-1H-indol-1-yl)methyl)piperidine-1-carboxylate]
% Remaining (1 h) [1, 2]: 57.9% | % Remaining (1 h) ([1]; mouse plasma, 37° C., 10 μM): 57.9% | % Remaining (1 h, 37° C.) ([1]; mouse plasma, 37° C.): 57.9% | IC50 (HER2): 1620 nM

Cc1cc(COC(=O)Nc2cccc3c2CN(C2CCC(=O)NC2=O)C3=O)cc(C)c1OC(=O)N1CCN(Cc2ccc(-n3c(O)nnc3-c3cc(C(C)C)c(O)cc3O)cc2F)CC1 (stereo not shown) [SDC-TRAP-0182, 4-((((2-(2,6-dioxopiperidin-3-yl)-1-oxoisoindolin-4-yl)carbamoyl)oxy)methyl)-2,6-dimethylphenyl 4-(4-(3-(2,4-dihydroxy-5-isopropylphenyl)-5-hydroxy-4H-1,2,4-triazol-4-yl)-2-fluorobenzyl)piperazine-1-carboxylate]
% Remaining (1 h) [1, 2]: 91.9% | IC50 (HER2): 359 nM

CCNC(=O)c1nnc(-c2cc(C(C)C)c(O)cc2O)n1-c1ccc(Oc2ccc(C(=O)N3CCC(OC(=O)OC4(CC)C(=O)OCc5c4cc4n(c5=O)Cc5c-4nc4ccc(O)cc4c5CC)CC3)cc2)cc1 (stereo not shown) [SDC-TRAP-0203, 4,11-Diethyl-9-hydroxy-3,14-dioxo-3,4,12,14-tetrahydro-1H-pyrano[3′,4′:6,7]indolizino[1,2-b]quinolin-4-yl (1-(4-(4-(3-(2,4-dihydroxy-5-isopropylphenyl)-5-(ethylcarbamoyl)-4H-1,2,4-triazol-4-yl)phenoxy)benzoyl)piperidin-4-yl) carbonate]
% Remaining (1 h, 37° C.) ([1]; mouse plasma, 37° C.): 71.2% | IC50 (HER2): 446 nM

CCc1c2c(nc3ccc(O)cc13)-c1cc3c(c(=O)n1C2)COC(=O)[C@@]3(CC)OC(=O)N1CCC(CCc2ccc(-n3c(O)nnc3-c3cc(C(C)C)c(O)cc3O)cc2)CC1 [SDC-TRAP-0104, (S)-4,11-diethyl-9-hydroxy-3,14-dioxo-3,4,12,14-tetrahydro-1H-pyrano[3′,4′:6,7]indolizino[1,2-b]quinolin-4-yl 4-(4-(3-(2,4-dihydroxy-5-isopropylphenyl)-5-hydroxy-4H-1,2,4-triazol-4-yl)phenethyl)piperidine-1-carboxylate]
% Remaining (1 h) [1, 2]: 95.5% | % Remaining (1 h, 37° C.) ([1]; mouse plasma, 37° C.): 95.5% | IC50 (HER2): 350 nM

CCNC(=O)c1nnc(-c2cc(C(C)C)c(O)cc2O)n1-c1ccc(OC2CCN(C(=O)Oc3c(C)cc(COC(=O)Nc4cccc5c4CN(C4CCC(=O)NC4=O)C5=O)cc3C)CC2)cc1 (stereo not shown) [SDC-TRAP-0187, 4-((((2-(2,6-dioxopiperidin-3-yl)-1-oxoisoindolin-4-yl)carbamoyl)oxy)methyl)-2,6-dimethylphenyl 4-(4-(3-(2,4-dihydroxy-5-isopropylphenyl)-5-(ethylcarbamoyl)-4H-1,2,4-triazol-4-yl)phenoxy)piperidine-1-carboxylate]
% Remaining (1 h) [1, 2]: 102% | IC50 (HER2): 72 nM

CCNC(=O)c1nnc(-c2cc(C(C)C)c(O)cc2O)n1-c1ccc(OC2CCN(C(=O)[C@@H]3CCCN3C(=O)Oc3ccc4nc5c(c(CC)c4c3)Cn3c-5cc4c(c3=O)COC(=O)[C@]4(O)CC)CC2)cc1 [SDC-TRAP-0209]
% Remaining (1 h) [1, 2]: 67.1% | % Remaining (1 h, 37° C.) ([1]; mouse plasma, 37° C.): 67.1% | IC50 (HER2): 1130 nM

CCc1c2c(nc3ccc(OC(=O)N4CCN(Cc5ccc(-n6c(O)nnc6-c6cc(C(C)C)c(O)cc6O)cc5)CC4C)cc13)-c1cc3c(c(=O)n1C2)COC(=O)C3(O)CC (stereo not shown) [SDC-TRAP-0220, 4,11-diethyl-4-hydroxy-3,14-dioxo-3,4,12,14-tetrahydro-1H-pyrano[3′,4′:6,7]indolizino[1,2-b]quinolin-9-yl 4-(4-(3-(2,4-dihydroxy-5-isopropylphenyl)-5-hydroxy-4H-1,2,4-triazol-4-yl)benzyl)-2-methylpiperazine-1-carboxylate]
% Remaining (1 h, 37° C.) ([1]; mouse plasma, 37° C.): 78.3% | IC50 (HER2): 474 nM and 445 nM

CCc1c2c(nc3ccc(O)cc13)-c1cc3c(c(=O)n1C2)COC(=O)C3(CC)OC(=O)CN1CCC(Cc2ccc(-n3c(O)nnc3-c3cc(C(C)C)c(O)cc3O)cc2)CC1 (stereo not shown) [SDC-TRAP-0071, 4,11-diethyl-9-hydroxy-3,14-dioxo-3,4,12,14-tetrahydro-1H-pyrano[3′,4′:6,7]indolizino[1,2-b]quinolin-4-yl 2-(4-(4-(3-(2,4-dihydroxy-5-isopropylphenyl)-5-hydroxy-4H-1,2,4-triazol-4-yl)benzyl)piperidin-1-yl)acetate]
% Remaining (1 h) [1, 2]: 102% | % Remaining (1 h, 37° C.) ([1]; mouse plasma, 37° C.): 102% | IC50 (HER2): 307 nM

CCNC(=O)c1nnc(-c2cc(C(C)C)c(O)cc2O)n1-c1ccc(Oc2ccc(C(=O)N3CCC(C(=O)OC4(CC)C(=O)OCc5c4cc4n(c5=O)Cc5cc6c(CN(C)C)c(O)ccc6nc5-4)CC3)cc2)cc1 (stereo not shown) [SDC-TRAP-0159, 10-((dimethylamino)methyl)-4-ethyl-9-hydroxy-3,14-dioxo-3,4,12,14-tetrahydro-1H-pyrano[3′,4′:6,7]indolizino[1,2-b]quinolin-4-yl-1-(4-(4-(3-(2,4-dihydroxy-5-isopropylphenyl)-5-(ethylcarbamoyl)-4H-1,2,4-triazol-4-yl)phenoxy)benzoyl)piperidine-4-carboxylate]
% Remaining (1 h) [1, 2]: 121% | IC50 (HER2): > 1000 nM

CCNC(=O)c1nnc(-c2cc(C(C)C)c(O)cc2O)n1-c1ccc(OC2CCN(C(=O)[C@@H]3CCCN3C(=O)O[C@]3(CC)C(=O)OCc4c3cc3n(c4=O)Cc4c-3nc3ccc(O)cc3c4CC)CC2)cc1 [SDC-TRAP-0214, (S)—(S)-4,11-diethyl-9-hydroxy-3,14-dioxo-3,4,12,14-tetrahydro-1H-pyrano[3′,4′:6,7]indolizino[1,2-b]quinolin-4-yl 2-(4-(4-(3-(2,4-dihydroxy-5-isopropylphenyl)-5-(ethylcarbamoyl)-4H-1,2,4-triazol-4-yl)phenoxy)piperidine-1-carbonyl)pyrrolidine-1-carboxylate]
IC50 (HER2): > 5000 nM

CCNC(=O)c1nnc(-c2cc(C(C)C)c(O)cc2O)n1-c1ccc(Oc2ccc(C(=O)N(C)CCC(=O)OC3(CC)C(=O)OCc4c3cc3n(c4=O)Cc4c-3nc3ccc(O)cc3c4CC)cc2)cc1 (stereo not shown) [SDC-TRAP-0169, 4,11-diethyl-9-hydroxy-3,14-dioxo-3,4,12,14-tetrahydro-1H-pyrano[3′,4′:6,7]indolizino[1,2-b]quinolin-4-yl 3-(4-(4-(3-(2,4-dihydroxy-5-isopropylphenyl)-5-(ethylcarbamoyl)-4H-1,2,4-triazol-4-yl)phenoxy)-N-methylbenzamido)propanoate]
IC50 (HER2): 611 nM

CCc1c2c(nc3ccc(OC(=O)N4CCC(Oc5ccc(-n6c(O)nnc6-c6cc(C(C)C)c(O)cc6O)cc5)CC4)cc13)-c1cc3c(c(=O)n1C2)COC(=O)[C@]3(O)CC [SDC-TRAP-0011, (S)-4,11-diethyl-4-hydroxy-3,14-dioxo-3,4,12,14-tetrahydro-1H-pyrano[3′,4′:6,7]indolizino[1,2-b]quinolin-9-yl 4-(4-(3-(2,4-dihydroxy-5-isopropylphenyl)-5-hydroxy-4H-1,2,4-triazol-4-yl)phenoxy) piperidine-1-carboxylate]
IC50 (HER2): > 5000 nM
